Literature values as cited in paper PMC6259197, “Alkaloids from Stems of Esenbeckia leiocarpa Engl. (Rutaceae) as Potential Treatment for Alzheimer Disease” (Molecules, 2010).

Assays:
[1] = test system: brine shrimp; details: alkaloids isolated from leaves of E. belizencis
[2] = test system: Leucoagaricus gongylophorus; set-up: method as in doi:10.1590/S0103-50532002000100010; details: alkaloids from Raulinoa echinata; symbiotic fungus of leaf-cutting ants
[3] = test system: Pectinophora gossypiella; set-up: method as in PMID 1965201; details: activity of extract attributed to leiokinine A and B

In the case of `COc1c2ccoc2nc2c(OC)c3c(cc12)OCO3` [flindersiamine], the “brine shrimp toxicity LC50” value [1] is listed as > 1,000 ppm and the “antifungal activity against Leucoagaricus gongylophorus” value [2] is listed as “antifungal activity”.

In the case of `COc1cc2nc3occc3c(OC)c2cc1OC` [kokusaginine], the “brine shrimp toxicity LC50” value [1] is given as 367 ppm, the mutagenic activity is given as “weak mutagenic activity” and the “antifungal activity against Leucoagaricus gongylophorus” value [2] is given as “antifungal activity”.

In the case of `CCCc1c(OC)c(=O)c2ccccc2n1C` [leiokinine A], the “antifeedant activity against pink bollworm” value [3] is given as “weak antifeedant activity”.

In the case of `COc1c2cc3c(cc2nc2occc12)OCO3` [maculine], the “antifungal activity against Leucoagaricus gongylophorus” value [2] is listed as “antifungal activity”.

In the case of `COc1ccc2c(OC)c3ccoc3nc2c1OC` [skimmianine], the mutagenic activity is listed as “weak mutagenic activity” and the “antifungal activity against Leucoagaricus gongylophorus” value [2] is listed as “antifungal activity”.

For leiokinine B, the “antifeedant activity against pink bollworm” value [3] is given as “weak antifeedant activity”.
